Measured values from patent US20210186972A1, “FORMULATIONS AND METHODS FOR THE PREVENTION AND TREATMENT OF TUMOR METASTASIS AND TUMORIGENESIS” (THE UNITED STATES OF AMERICA, AS REPRESENTED BY THE …, priority 2018, published 2021).

Assays:
[1] = test system: NSG PANC1 mice; test: Survival in NSG PANC1 pancreatic cancer metastasis model, drug-infused chow; format: in vivo
From the text: FIG. 13 is a graph showing the survival rate of mice following metarrestin or vehicle treatment. This graph illustrates that metarrestin treatment extends survival in the NSG PANC1 pancreatic cancer metastasis model. […] The survival rate in the y-axis and the number of days after treatment is on the x-axis. Metarrestin treatment is the solid grey line at 100% survival and the descending black line is the vehicle (*** p<0.001).
FIG. 14 is a graph showing the survival rate of mice following metarrestin or vehicle treatment. This graph illustrates that metarrestin treatment extends survival in the NSG PANC1 pancreatic cancer metastasis model. Metarrestin treatment was provided through drug-infused chow (70 ppm designed to administer 10 mg/kg daily) after mice developed macrometastasis, including visible liver surface deposits. Metarrestin treatment extended the survival time of the mice compared to vehicle treated (NIH 31 Haslan diet). The survival rate in the y-axis and the number of days after treatment is on the x-axis. Metarrestin treatment is the solid grey line and the black line is the vehicle ([…]).
To evaluate whether metarrestin treatment can provide a survival advantage by preventing metastatic progression, the above experiment was repeated, but mice were followed until death or when animals reached study endpoint. NSG mice were injected with 60,000 3D PANC1 cells (details of assay below), and daily treatment with metarrestin-infused chow (10 mg/kg; 70 ppm, micronized particles added to NIH 31 Haslan rodent diet) began 6 weeks after tumor cell implantation, when metastasis was limited to micrometastasis by histopathological examination (FIG. 63). Animals in the control group receiving regular chow started to die 25 days after the start of treatment, whereas the metarrestin treatment group had no mortality more than 90 days after the start of treatment (FIG. 13). […]
Pancreatic cancer model: 60,000 luciferase-tagged PANC1 spheres were injected into the pancreas of Nod/IL2gamma (null) mice (obtained from NCI Mouse Repository, Frederick, Md.; on ACUC-approved animal protocol SB-211-2). […] Organs were then individually dissected, subjected to quantitative xenogene imaging, and fixed with 4% non-buffered formaldehyde. Impact of metastatic burden was calculated and graphed as liver and lung/primary tumor ratios based on a five-minute photon count for the liver normalized to liver weight (g), which was then compared to the average photon count per weight (g) of the primary pancreatic tumor of the same animal. […] Liver metastasis/mm^2 was calculated as the sum of the […] of the individual metastases. Tumor volume (mm^3) was calculated as (L×W2), where L=length (mm) and W=width (mm). Animal survival was measured from the first day of treatment until death. […]

[2] = test system: human cancer cell lines; test: PNC prevalence in a range of cancer cell lines; format: cell-based; details: 1 μM, 24 hours, different human cancer cell lines
Protocol: FIG. 2 is a bar graph showing that 1 μM metarrestin was effective at reducing PNCs in a range of cancer cell lines (p<0.05 for PNC reduction in all cell lines; the list of cells is in Table 1 below, see also Example 2 below). The DMSO control is shown in light grey bars and metarrestin in dark grey bars. PNC prevalence (%) is on the y-axis and the cell line names are along the x-axis.
In summary, several cell types (see list below in Table 1) were treated with 1 μM (IC100 for PC3M cells) of metarrestin for 24 hours. Specifically, PC-3M cells were maintained in RPMI 1640 medium. Other cell lines including HeLa, Panel, PACADD159, PACADD183, PA-TU-8988T, KP-3, PK-8, NOR-P1, L3.6sl, Colo357, Suit-2, HP AC were maintained in DMEM with 10% FBS (GEMINI™ Bio Products) and 100 units/mL of penicillin and streptomycin. Cells were generally plated approximately 24 h before treatment with metarrestin for 5 h or 24 h at 1 μM.

[3] = test system: patient-derived breast cancer xenotransplantation model (PDX); test: Patient-derived breast cancer xenotransplantation model (PDX); format: in vivo; details: 25 mg/kg IP, 5-day on and 2-day off, 4 weeks
Protocol: Metarrestin was tested in PC3M xenograft mice to determine whether metarrestin's anti-metastasis activity (observed in the NSG PANC1 mice and in vitro pan-cancer PNC suppression) translates into anti-metastasis activity in additional cancer models. Two weeks after subcutaneous implantation of PC3M cells, mice were started on 5 mg/kg or 25 mg/kg metarrestin or vehicle by daily IP injection for 4 additional weeks. Tumor progression was tracked by both in vivo imaging systems (“IVIS”) spectroscopy and tumor volume. Metastasis to the lungs was evaluated ex vivo through IVIS spectroscopy and by histopathology at the experimental endpoint. […] To evaluate the effect of metarrestin on a malignant xenograft considered closest to in vivo conditions, a patient-derived breast cancer xenotransplantation model (PDX) was used. […] Tumor size and total body weight were measured twice a week, and tumor weight was measured at experimental end-point.
Breast cancer model: The model derived from 0.2 liter of pleural effusion from a breast cancer patient (model #373342). These cancer cells had metastasized to the lung pleura from the initial tumor detected in the breast. […] Tumor size and total body weight were measured twice a week.

[4] = infused chow 10 mg/kg (70 ppm) after macrometastasis visible

`N=c1c2c(-c3ccccc3)c(-c3ccccc3)n(Cc3ccccc3)c2ncn1[C@H]1CC[C@H](O)CC1` [metarrestin] was tested, and the “Extension of median overall survival over control group” value [1, 4] was “more than two-fold”, the “Organ replacement with tumors at necropsy (liver, lungs)” value [1, 4] was “preserved organs” and the “Primary tumor growth in the pancreas” value [1, 4] was “no significant difference”. For the same molecule, the “Time after start of treatment without mortality” value ([1]; infused chow 10 mg/kg (70 ppm) from 6 weeks after implantation (micrometastasis)) was “more than 90 days”, the PNC prevalence [2] was “reduced PNC prevalence” and the PDX growth [3] was “effectively inhibited the PDX growth”. The “Tolerability (body weight and behavior)” value [3] was “well-tolerated”.
